Assay results as given in paper PMC6214909, “An asparagine/glycine switch governs product specificity of human N-terminal methyltransferase NTMT2” (Communications Biology, 2018).

Experiments:
NTMT1 = experiment: MALDI-MS methyltransferase activity assay, NTMT1; assay type: biochemical, human; settings: 2 μM NTMT1, 10 μM peptide, 200 μM SAM, 25 mM Tris–HCl pH 7.5, 50 mM KCl, 37 °C, overnight
Procedure: (§1) A mixture (36 μL) of 2 μM enzyme (NTMT1 or NTMT2), 25 mM Tris–HCl pH 7.5, 50 mM KCl and 200 μM SAM was incubated at 37 °C for 5 min. 4 μL of 100 μM peptide substrate (final concentration 10 μM) was then added to initiate the reaction. The reaction was incubated overnight and then stopped with quenching solution (20 mM NH4H2PO4, 0.4% (v/v) TFA in 1:1 acetonitrile/water). Reaction mixtures were analyzed with an Applied Biosystems Voyager matrix-assisted laser desorption/ionization time-of-flight mass spectrometer. Processing of all spectra results in Data Explorer included application of a noise filter (correlation factor of 1.0) and a baseline correction. Areas of the monoisotopic peaks for all relevant species were combined to obtain a total area for each sample. The fraction of each methylation state was calculated by summing the areas of all the monoisotopic peaks for that state ([M + H]^+, [M + Na]^+, [M + K]^+, [M – H + 2Na]^+, [M – H + 2 K]^+, and [M – H + Na + K]^+) and then dividing by the total area.

NTMT2 = target: T1, NTMT2 (Homo sapiens, UniProt Q5VVY1); experiment: MALDI-MS methyltransferase activity assay, NTMT2; assay type: biochemical; settings: 2 μM NTMT2, 10 μM peptide, 200 μM SAM, 25 mM Tris–HCl pH 7.5, 50 mM KCl, 37 °C, overnight
T1 construct: DNA encoding human NTMT2 (residues 58–278) was amplified by PCR; SUMO (His8-SUMO of the pET28-MKH8SUMO vector, with TEV site) (N, cleaved yes); made in house; host or cells: Escherichia coli BL21 (DE3)
Procedure: as §1

NTMT2-N89G mutant = experiment: MALDI-MS methyltransferase activity assay, NTMT2-N89G mutant; assay type: biochemical, human; settings: NTMT2-N89G under the same conditions (2 μM enzyme, 10 μM peptide, 200 μM SAM, pH 7.5, 37 °C, overnight)
Procedure: as §1

T1 sequence (Q5VVY1 58-278): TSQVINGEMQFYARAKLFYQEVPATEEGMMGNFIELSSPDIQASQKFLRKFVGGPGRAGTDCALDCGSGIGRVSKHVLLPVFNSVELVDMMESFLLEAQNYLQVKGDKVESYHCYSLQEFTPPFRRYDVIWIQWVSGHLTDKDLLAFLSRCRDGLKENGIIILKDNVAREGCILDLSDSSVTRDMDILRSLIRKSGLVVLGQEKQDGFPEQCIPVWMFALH

Row | Substance | Di-methylated fraction (NTMT1) [%] | Mono-methylated fraction (NTMT1) [%] | Trimethylated fraction (NTMT1) [%] | Unmethylated fraction (NTMT1) [%] | Di-methylated fraction (NTMT2) [%] | Mono-methylated fraction (NTMT2) [%] | Trimethylated fraction (NTMT2) [%] | Unmethylated fraction (NTMT2) [%] | Di-methylated fraction (NTMT2-N89G mutant) [%] | Mono-methylated fraction (NTMT2-N89G mutant) [%] | Trimethylated fraction (NTMT2-N89G mutant) [%] | Unmethylated fraction (NTMT2-N89G mutant) [%]
1 | APKRIA [synthetic XPKRIA hexapeptide substrate, X = A] | 0.00 | 0.00 | 100.00 | 0.00 | 0.00 | 32.17 | 0.00 | 67.83 | 26.21 | 71.86 | 1.93 | 0.00
2 | CPKRIA [synthetic XPKRIA hexapeptide substrate, X = C] | 44.61 | 27.87 | 0.00 | 27.51 | 0.00 | 25.20 | 0.00 | 74.80 | 0.00 | 63.38 | 0.00 | 36.62
3 | DPKRIA [synthetic XPKRIA hexapeptide substrate, X = D] | 0.00 | 9.37 | 0.00 | 90.64 | 0.00 | 0.00 | 0.00 | 100.00 | 0.00 | 0.00 | 0.00 | 100.00
4 | EPKRIA [synthetic XPKRIA hexapeptide substrate, X = E] | 0.00 | 10.70 | 0.00 | 89.30 | 0.00 | 0.00 | 0.00 | 100.00 | 0.00 | 0.00 | 0.00 | 100.00
5 | FPKRIA [synthetic XPKRIA hexapeptide substrate, X = F] | 97.34 | 0.00 | 2.66 | 0.00 | 0.00 | 50.22 | 0.00 | 49.78 | 0.00 | 100.00 | 0.00 | 0.00
6 | GPKRIA [synthetic XPKRIA hexapeptide substrate, X = G] | 0.00 | 0.00 | 100.00 | 0.00 | 20.14 | 15.31 | 27.94 | 36.61 | 19.61 | 6.64 | 60.27 | 13.49
7 | HPKRIA [synthetic XPKRIA hexapeptide substrate, X = H] | 100.00 | 0.00 | 0.00 | 0.00 | 0.00 | 39.05 | 0.00 | 60.95 | 1.61 | 98.39 | 0.00 | 0.00
